Counter-ions that a name gives are not always drawn.

A short description of the series: RP, Waters ACQUITY UPLC BEH C18, 100 × 2.1 mm, 1.7 µm; A: water + 0.1% formic acid, pH 3; B: 80% acetonitrile + 20% acetone + 0.1% formic acid, pH 3; gradient (min/%B) 0/0 6/100. Particulars: stereoisomer not certain.
Consider `CCCCCCCCCCCCCCCCC=COCC(O)COP(=O)([O-])OCC[N+](C)(C)C` (stereo not given), for which the LC retention time was 4.95 min. The figure for `CCC(C)(O)C(=O)O` (stereo not given) [2-Hydroxy-2-methylbutyric acid] is 1.63 min; for `CC(C)C(O)C(=O)O` (stereo not given) [2-Hydroxy-3-methylbutyric acid] it is 1.69 min.

On to `CCC(C)C(=O)C(=O)O` (stereo not given) [2-Oxo-3-methylpentanoic acid], for which the LC retention time turned out to be 1.86 min. The figure for `CC(C)CC(=O)C(=O)O` [2-Oxo-4-methylpentanoic acid] is 1.99 min. In the case of `CCCC(=O)C(=O)O` [2-Oxovaleric acid], the LC retention time worked out at 1.62 min.

Take `CC(=O)C(C)C(=O)O` (stereo not given) [2-methylacetoacetic acid]: the LC retention time stood at 1.61 min. On to `O=C(O)CCc1ccc(O)c(O)c1` [3,4-dihydroxyhydrocinnamic acid], for which the LC retention time came out at 1.69 min.

Take `OCC(O)c1ccc(O)c(O)c1` (stereo not given) [3,4-dihydroxyphenyl glycol]: the LC retention time was found to be 1.02 min. The figure for `CC(O)C(C)C(=O)O` (stereo not given) [3-Hydroxy-2-methylbutyric acid] is 1.51 min. `Nc1ccc(OS(=O)(=O)O)cc1` [4-Aminophenyl hydrogen sulfate]: the LC retention time is 0.641 min. For `Nc1ccc(O)cc1` [4-aminophenol], the LC retention time was 0.641 min. Consider `O=C(O)Cc1c[nH]c2ccc(O)cc12` [5-hydroxyindole-3-acetic acid], for which the LC retention time turned out to be 1.61 min. For `COc1ccc(O)c(C(=O)O)c1` [5-methoxysalicylic acid], the LC retention time is 2.41 min. For the compound `CC12CCC(=O)C=C1CCC1C2CCC2(C)C1CCC2(O)C(=O)CO` (stereo not given) [11-Deoxy-17-hydroxycorticosterone], the LC retention time was 3.04 min. The figure for `CC(O)C1CCC2C3CCC4CC(=O)CCC4(C)C3CCC12C` (stereo not drawn) [20-beta-Hydroxy-5-alpha-pregnan-3-one] is 4.33 min; for `CC[C@@H](O)C(=O)[O-]` [(R)-2-hydroxybutyric acid] it is 1.4 min. For the compound `CC(C)C(=O)C(=O)O` [Alpha-ketoisovaleric acid], the LC retention time came out at 1.45 min. As to `CCCCCCCCCCCCCCCCOCC(COP(=O)([O-])OCC[N+](C)(C)C)OC(=O)CCCCCCCC(=O)O` (stereo not given) [Azelaoyl PAF 10 ug/ml], the LC retention time worked out at 4.86 min. With `CC12CCc3occc3C1CCC13CC(CCC12)C(O)(CO)C3` (stereo not given) [Cafestol (10x dilute)], the LC retention time was determined as 3.19 min. Take `CCC(C)C1NC(=O)C(C)NC1=O` (stereo not given) [Cyclic(ala-ile)]: the LC retention time came out at 1.8 min. For `CC(C)CC1NC(=O)C(C)NC1=O` (stereo not given) [Cyclic(ala-leu)], the LC retention time stood at 1.86 min. On to `O=C(O)CCC1NC(=O)C(CC(=O)O)NC1=O` (stereo not given) [Cyclic(asp-glu)], for which the LC retention time worked out at 0.884 min. As to `CCC(C)C1NC(=O)C(CC(=O)O)NC1=O` (stereo not given) [Cyclic(asp-ile)], the LC retention time is 1.65 min. Turning to `CC(C)CC1NC(=O)C(CC(=O)O)NC1=O` (stereo not given) [Cyclic(asp-leu)], the LC retention time was found to be 1.68 min. The figure for `CCC(C)C1NC(=O)C(CCC(=O)O)NC1=O` (stereo not given) [Cyclic(glu-ile)] is 1.71 min; for `O=C(O)CCC1NC(=O)C2CCCN2C1=O` (stereo not given) [Cyclic(glu-pro)] it is 1.43 min; for `CC(C)C1NC(=O)C(CCC(=O)O)NC1=O` (stereo not given) [Cyclic(glu-val)] it is 1.5 min. The figure for `CCC(C)C1NC(=O)C(C(C)C)NC1=O` (stereo not given) [Cyclic(ile-val)] is 2.31 min. On to `CC(C)C1NC(=O)C(Cc2ccccc2)NC1=O` (stereo not given) [Cyclic(phe-val)], for which the LC retention time worked out at 2.39 min. Turning to `CC(C)C1NC(=O)C2CCCN2C1=O` (stereo not given) [Cyclic(pro-val)], the LC retention time was determined as 1.74 min. In the case of `O=C(O)CNC(=O)C=Cc1c[nH]c2ccccc12` [INDOLE-3-ACRYLOYLGLYCINE], the LC retention time turned out to be 2.13 min.

Consider `CCCCCC=CCC=CCCCCCCCC(=O)OCC(O)COP(=O)([O-])OCC[N+](C)(C)C` (stereo not given) [LPC(18:2)_enz], for which the LC retention time was found to be 4.25 min. For the compound `CCC=CCC=CCC=CCC=CCC=CCCCC(=O)OCC(O)COP(=O)([O-])OCC[N+](C)(C)C` (stereo not given) [LPC(20:5)_enz], the LC retention time was determined as 4.02 min.

With `CNC(CC(=O)O)C(=O)O` (stereo not given) [N-methyl-aspartic acid], the LC retention time stood at 0.58 min. The figure for `O=C(O)CNC(=O)c1cccnc1` [Nicotinuric acid] is 1.35 min. The figure for `CCCCCCCCCCCCCCCC(=O)OCC(COP(=O)([O-])OCC[N+](C)(C)C)OC(=O)CCCCCCCC(=O)O` (stereo not given) [PAZ-PC] is 4.66 min. `CCC=CCC=CCC=CCC=CCC=CCCCC(=O)OCC(COP(=O)([O-])OCC[N+](C)(C)C)OC(=O)CCCC=CCC=CCC=CCC=CCC=CCC` (stereo not given) [PC(20:5/20:5)]: the LC retention time turned out to be 5.62 min. The figure for `CCCCCCCCCCCCCCCC(=O)OCC(COP(=O)([O-])OCC[N+](C)(C)C)OC(=O)CCCC(=O)O` (stereo not given) [PGPC] is 4.52 min; for `CCCCCCCCCCCCCCCC(=O)OCC(COP(=O)([O-])OCC[N+](C)(C)C)OC(=O)CCCC=O` (stereo not given) [POV-PC 10 ug/ml] it is 4.66 min. For `CC(C)C(NC(=O)C(N)Cc1ccccc1)C(=O)O` (stereo not given) [Phe-Val], the LC retention time was determined as 1.63 min. On to `CC12C=CC(=O)C=C1CCC1C2C(O)CC2(C)C1CCC2(O)C(=O)CO` (stereo not given) [Prednisolone], for which the LC retention time turned out to be 2.65 min. Consider `Cc1ncc(C[n+]2csc(CCOP(=O)(O)O)c2C)c(N)n1` [Thiamine monophosphate Cloride dihydrat], for which the LC retention time stood at 0.595 min.

Regarding `CC(C)C(N)C(=O)NC(Cc1ccccc1)C(=O)O` (stereo not given) [Val-Phe], the LC retention time was determined as 1.7 min. As for `CC(C)C(N)C(=O)O` (stereo not given) [Valine], the LC retention time came to 0.798 min. Turning to `CC(C)(O)C(=O)O` [alpha-hydroxyisobutyric acid], the LC retention time worked out at 1.4 min. The figure for `CCC(C)C(NC(=O)C(N)CC(=O)O)C(=O)O` (stereo not given) [asp-ile] is 0.6 min; for `CC(C)CC(NC(=O)C(N)CC(=O)O)C(=O)O` (stereo not given) [asp-leu] it is 0.6 min; for `CCC(C)C(NC(=O)CC(N)C(=O)O)C(=O)O` (stereo not drawn) [beta-asp-ile] it is 0.6 min.

For the compound `CC(C)CC(NC(=O)CC(N)C(=O)O)C(=O)O` (stereo not drawn) [beta-asp-leu], the LC retention time was determined as 0.6 min. For `CC(O)CC(=O)[O-]` (stereo not drawn) [beta-hydroxybutyric acid], the LC retention time is 1.78 min. The figure for `CC(CO)C(=O)O` (stereo not drawn) [beta-hydroxyisobutyric acid] is 1.4 min. The figure for `CS(=O)CCC(N)C(=O)O` (stereo not drawn) [dl methine sulfoxide] is 0.596 min; for `O=C(O)CCCO` [gamma-hydroxybutyric acid] it is 1.07 min; for `CC(C)C(NC(=O)C(N)CCC(=O)O)C(=O)O` (stereo not given) [glu-val] it is 1.32 min. Regarding `CCC(C)C(N)C(=O)NC(CC(=O)O)C(=O)O` (stereo not given) [ile-asp], the LC retention time worked out at 0.6 min.

With `O=Cc1c[nH]c2ccccc12` [indole-3-carbaldehyde], the LC retention time was 2.27 min. The figure for `Nc1ccccc1C(=O)CC(N)C(=O)O` (stereo not drawn) [l-kynurenine] is 1.34 min; for `CC(C)CC(N)C(=O)NC(CC(=O)O)C(=O)O` (stereo not given) [leu-asp] it is 0.6 min; for `O=C(O)CC(NC(=O)C1CCC(=O)N1)C(=O)O` (stereo not given) [pglu-asp] it is 0.6 min.
